Experimental data as given in publication PMC5809559, “DYRK1A inhibition and cognitive rescue in a Down syndrome mouse model are induced by new fluoro-DANDY derivatives” (Scientific Reports, 2018).
“And” between values parts separate entries of the source, which are not always exact repeats. Equal values may be shown once. Read-outs that look alike come from different tables or passages of the source.

Assays:
[1] = target: T1, DYRK1A catalytic domain (DYRK1A-ΔC) (Rattus norvegicus, UniProt Q63470); assay: In vitro DYRK1A kinase inhibition, UFLC assay with fluorescent peptide substrate; type: biochemical; settings: read-out: IC50, in vitro inhibition of DYRK1A
T1 construct: The cDNA coding for the catalytic domain (residues 1-502) of rat DYRK1A; 6xHis; made in house; host or cells: E. coli BL21(DE3), pET28

KB cells = assay: KB cell proliferation / cytotoxicity (CellTiter-Blue); type: cell-based; settings: Homo sapiens; for inhibition at 1 µM / inhibition at 10 µM: 72 h; for inhibition at 1 µM: 10^−6 M, read-out: % Growth inhibition 10^−6 M; for inhibition at 10 µM: 10^−5 M, read-out: % Growth inhibition 10^−5 M
Procedure: Cancer cell lines were obtained from the American Type Culture Collection (Rockville, MD, USA) and were cultured according to the supplier’s instructions. Briefly, human KB epidermal carcinoma cells were grown in Dulbecco minimal essential medium (DMEM) containing 4.5 g/L glucose supplemented with 10% fetal calf serum (FCS) and 1% glutamine, 100 UI penicillin, 100 µg/mL streptomycin and 1.5 µg/mL fungizone and maintained at 37 °C in a humidified atmosphere containing 5% CO2. Cell viability was assessed using Promega CellTiter-Blue TM reagent according to the manufacturer’s instructions. Cells were seeded in 96-well plates (5 × 10^3 cells/well) containing […]. After 24 h of culture, the cells were supplemented with […] of the studied compound dissolved in DMSO (less than 0.1% in each preparation). After 72 h of incubation, […] of resazurin was added for 2 h before recording fluorescence (λex = 560 nm, λem = 590 nm) using a Victor microtiter plate fluorimeter (Perkin-Elmer, USA).

DYRK1A = target: T2, DYRK1A (Homo sapiens, UniProt Q13627); assay: Inhibition of tau phosphorylation by DYRK1A in cellulo (HEK293 co-transfected with DYRK1A and Tau, ClariCELL ELISA phospho-TauT212); type: cell-based
T2 construct: vectors encoding full-length human DYRK1A and Tau; host or cells: HEK293

[2] = set-up: method as in PMID 27194478; settings: other drugs acting on the central nervous system; cited from earlier work
[3] = 3,5-diaryl-7-azaindoles 4a-4f, Fig. 4
[4] = 3,5-diaryl-7-azaindoles 5a-5g, Fig. 5

Row | Compound | IC50 [1, 3] [nM] | IC50 [1, 4] | also measured
1 | COc1ccc(-c2cnc3[nH]cc(-c4ccc(F)cc4)c3c2)c(OC)c1 [Compound 4b] | 920 | – | –
2 | COc1ccc(-c2cnc3[nH]cc(-c4ccc(F)c(F)c4)c3c2)c(OC)c1 [Compound 4d] | 37400 | – | –
3 | Oc1ccc(-c2cnc3[nH]cc(-c4ccc(F)cc4)c3c2)c(O)c1 [Compound 5b] | – | 191 nM | –
4 | Oc1ccc(-c2cnc3[nH]cc(-c4ccc(F)c(F)c4)c3c2)cc1O [Compound 5c] | – | 56.6 nM | inhibition at 1 µM (KB cells; KB): 6 ± 2%
5 | Oc1ccc(-c2cnc3[nH]cc(-c4ccc(F)c(F)c4)c3c2)c(O)c1 [Compound 5d] | – | 232 nM | –
6 | COc1ccc(-c2c[nH]c3ncc(-c4ccc(O)cc4)cc23)cc1F [Compound 5e] | – | 41.5 nM | inhibition at 10 µM (KB cells): 66 ± 3%; inhibition at 1 µM (KB cells): 30 ± 1%
7 | COc1ccc(-c2c[nH]c3ncc(-c4ccc(O)c(O)c4)cc23)cc1OC [Compound 5f] | – | 476 nM | –
8 | CC(NC(C)(C)C)C(=O)c1cccc(Cl)c1 (centres unmarked) [buproprion] | – | – | Kp (brain concentration/plasma concentration) [2]: 4.97
9 | CNCCC(Oc1ccc(C(F)(F)F)cc1)c1ccccc1 (centres unmarked) [fluoxetine] | – | – | Kp (brain concentration/plasma concentration) [2]: 5.23
10 | OCCN1CCN(CCCN2c3ccccc3Sc3ccc(Cl)cc32)CC1 [perphenazine] | – | – | Kp (brain concentration/plasma concentration) [2]: 7.12

Continued, in another order:

Row | IC50 [1, 3] [nM] | IC50 [1, 4] | Compound | also measured
11 | 1430 | – | COc1ccc(-c2cnc3[nH]cc(-c4ccc(F)cc4)c3c2)cc1OC [Compound 4a] | –
12 | 5260 | – | COc1ccc(-c2cnc3[nH]cc(-c4ccc(F)c(F)c4)c3c2)cc1OC [Compound 4c] | –
13 | 6090 | – | COc1ccc(-c2c[nH]c3ncc(-c4ccc(OCc5ccccc5)cc4)cc23)cc1F [Compound 4e] | –
14 | 18500 | – | COc1ccc(-c2c[nH]c3ncc(-c4ccc(OCc5ccccc5)c(OCc5ccccc5)c4)cc23)cc1OC [Compound 4f] | –
15 | – | 9.34 nM and 9.3 nM | Oc1ccc(-c2cnc3[nH]cc(-c4ccc(O)c(F)c4)c3c2)cc1 [Compound 5g] | IC50 (DYRK1A; HEK293 transfected with DYRK1A and tau, 2 h incubation): 380 nM; Ratio between in cellulo and in vitro inhibitory potencies (DYRK1A; tau phosphorylation IC50 / in vitro DYRK1A IC50): 41; inhibition at 10 µM (KB cells; KB): 95 ± 1%; inhibition at 1 µM (KB cells; KB): 46 ± 1%; IC50 (KB cells; estimated, read-out: estimated IC50, KB cell growth inhibition): ~1000 nM
